According to patent US20220362299A1, “ENGINEERED NATURAL KILLER CELLS AND METHODS FOR USING THE SAME IN IMMUNOTHERAPY AND AUTOPHAGY INHIBITON TECHNIQUES” (Purdue Research Foundation, priority 2019, published 2022):

Columns and labels:
pNK cells [1] = assay: Effect of adenosine on pNK cell viability (CCK-8) and NKG2D expression (flow cytometry); assay type: cell-based, human; conditions: 1000 μM adenosine, 24 h
Procedure: To verify this, pNK cells were seeded into a 24-well plate at a density of 5×10^5 cells/well in 500 μL medium. Adenosine was then added to a final concentration of 1000 μM. After 24 h, the cells were collected and their viability (%) was determined via a CCK-8 assay (subpart A of FIG. 2). The NKG2D expression (% and MFI) was determined by flow cytometry (subpart B of FIG. 2). […] These findings support that there is a need to increase NKG2D expression on NK cells through engineering.

GBM43 cells = assay: ELISA of CCL5 and CXCL10 in supernatant of GBM43 cells; assay type: cell-based, human; conditions: with CQ 50 μM, 24 h
Excerpt: To evaluate changes in the protein levels of these chemokines and gain more insight into the underlying molecular mechanisms, chemokine concentrations were quantified in the conditioned media of CQ-treated GBM43 cells using ELISA in absence and presence of various pharmacological inhibitors driving signaling pathways for these chemokines. This included the PI3K inhibitor LY294002, NF-κB inhibitor BAY11-7082 and JNK inhibitor SP600125.
More specifically, to measure secreted CCL5 and CXCL10, GBM43 cells were treated with CQ at a final concentration of 50 μM in presence or absence of various small molecule inhibitors, including LY294002, BAY11-7082 and SP600125 for 24 hours. Supernatants were collected and the levels of CCL5 and CXCL10 were quantified using Human CCL5 and CXCL10 Biolegend-ELISA MAX™ Deluxe Sets according to the manufacturer's directions. To look at the levels of multiple chemokines secretion from GBM43 cells, the cell culture supernatants were also collected and all the selected targets were determined with the chemokine array provided by Eve Technologies (Calgary, Canada).

pNK cells [2] = assay: Transwell BBB migration assay of pNK cells; assay type: cell-based, human; conditions: 100 ng/mL in lower chamber, 6 hours
Procedure: To determine involvement of CCL5 and CXCL10 in the migration of NK cells, the migration of activated pNK cells toward CCL5 and CXCL10 gradients was then tracked using an in vitro BBB model setup by a direct contact co-culture of primary human astrocytes and […] human cerebral microvessel endothelial cells (FIG. 12, subpart G).
An in vitro direct contact co-culture blood-brain barrier (BBB) model was established as previously described^53. Briefly, human astrocytes were seeded at a density of 4×10^4 cells/cm^2 into 24-well Transwell® inserts (pore size 5 μm) pre-coated with 2 μg/cm^2 poly-L-lysine and allowed to proliferate/differentiate for 48 hours in media. Media was then removed and the hCMEC/D3 cells suspended into EBM-2 media were seeded at a density of 1×10^5 cells/cm^2.
The co-culture was grown in EBM-2 with media changes every other day for an additional 7 days before studies were conducted. 600 μL of RPMI1640 medium supplemented with 1% FBS containing recombinant CCL5 or CXCL10 at 100 ng/mL was placed in the lower chamber of the Transwell® plate. Activated pNK cells (5×10^5) in 100 μL RPM11640 medium supplemented with 1% FBS were placed into the upper chamber (5-μm pore size). After incubation for 6 hours at 37° C. and 5% CO2, the number of pNK cells that migrated into the lower chamber was determined by flow cytometry. […]

[3] = biological target: T1, CD73 (ecto-5'-nucleotidase, NT5E) on patient-derived GBM43 glioblastoma cells (human, UniProt P21589 27-549); assay: immunofluorescence (Protein L) on sections of subcutaneous GBM43 xenograft tumors
T1 construct: whole, on cells; Endogenous surface CD73 of human patient-derived GBM43 cells, in culture or as xenograft tumors
T1 sequence (looked up): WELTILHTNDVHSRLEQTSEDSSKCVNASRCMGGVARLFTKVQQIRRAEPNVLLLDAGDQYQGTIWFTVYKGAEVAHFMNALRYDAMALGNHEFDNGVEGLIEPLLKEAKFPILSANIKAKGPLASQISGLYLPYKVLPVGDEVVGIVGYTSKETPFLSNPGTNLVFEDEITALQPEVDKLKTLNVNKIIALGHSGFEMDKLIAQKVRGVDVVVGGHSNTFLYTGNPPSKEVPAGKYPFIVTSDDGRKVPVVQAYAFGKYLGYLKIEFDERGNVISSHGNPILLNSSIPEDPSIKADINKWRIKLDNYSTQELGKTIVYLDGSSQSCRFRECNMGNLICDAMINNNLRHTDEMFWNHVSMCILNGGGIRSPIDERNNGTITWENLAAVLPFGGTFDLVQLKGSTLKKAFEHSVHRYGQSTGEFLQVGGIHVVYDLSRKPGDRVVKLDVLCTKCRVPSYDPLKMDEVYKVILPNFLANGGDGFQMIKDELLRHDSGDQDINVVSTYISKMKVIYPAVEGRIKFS

CD73 = CD73 activity of GBM43 cells (AMP hydrolysis, malachite green phosphate assay); assay type: cell-based, human
Procedure: To test for CD73 activity and its ability to generate adenosine, GBM43 cells were seeded at 2×10^4 cells per well in a 96-well plate in complete DMEM. After overnight incubation, GBM43 cells were incubated with anti-CD73 scFv following uPA (100 nM)-mediated cleavage from either CD73.mCAR-NK92 or CD73.mCAR-pNK cells during incubation for 6 hours. Then, the cell medium was removed and cells were rinsed three times with phosphate-free buffer (117 mM NaCl, 5.3 mM KCl, 1.8 mM MgCl2, 26 mM NaHCO3, 10 mM glucose, pH 7.4, diluted in ddH2O). AMP (250 μM final), diluted in phosphate-free buffer, was added and incubated for 10 min at 37° C. Finally, the phosphate (Pi) concentrations resulting from AMP hydrolysis were measured using a malachite green phosphate assay kit following the manufacturer's instructions.

Which “cell viability of pNK cells” value (pNK cells [1]; CCK-8) does the source give for `Nc1ncnc2c1ncn2[C@@H]1O[C@H](CO)[C@@H](O)[C@H]1O` [adenosine] here?
The value was “clear negative affect”.

What about the “NKG2D expression on pNK cells” value (pNK cells [1]; flow cytometry) of the same molecule?
Its value is “decreased”.

With `Cc1ccc(S(=O)(=O)/C=C/C#N)cc1` [BAY11-7082] as the molecule, how does the “inhibition of the CQ-elevated production of CCL5 and CXCL10” value (GBM43 cells) read?
The value was “significantly inhibited”.

Which “migration of activated pNK cells along ligand gradient across in vitro BBB” value (pNK cells [2]) does the source give for CXCL10: Recombinant human CXCL10 here?
The value was “significantly increased”.

B1: anti-CD73 scFv cleaved by uPA or tumor-associated proteases from Construct 1 (CD73.mCAR) on engineered NK cells (scFv)
scFv: EVQLLESGGGLVQPGGSLRLSCAASGFTFSSYAYSWVRQAPGKGLEWVSAISGSGGRTYYADSVKGRFTISRDNSKNTLYLQMNSLRAEDTAVYYCARLGYGRVDEWGRGTLVTVSSGGGGSGGGGSGGGGSQSVLTQPPSASGTPGQRVTISCSGSLSNIGRNPVNWYQQLPGTAPKLLIYLDNLRLSGVPDRFSGSKSGTSASLAISGLQSEDEADYYCATWDDSHPGWTFGGGTKLTVLGGGGSGGGGSGGGGS
notes: Soluble fragment released from CD73.mCAR-NK92 or CD73.mCAR-pNK cells, by 100 nM uPA in vitro or by tumor proteases in vivo; also called αCD73 scFv; aCD73 scFv; not shown: the cleavage site is
Does B1 bind [3]?
Result: binds

B2: anti-CD73 scFv: CD73-blocking single chain antibody fragment released from the CAR by uPA / tumor-associated protease cleavage (protein)
scFv: B1 scFv
modifications: left off: small tags and cut ends
For B2, which “production of extracellular adenosine by GBM43 cells (CD73 activity)” value (CD73; scFv cleaved by uPA from CD73.mCAR-NK92 cells) is on record?
The value was “significantly decreased production”.

What about the “ability of GBM43 cells to produce adenosine (CD73 activity)” value (CD73; scFv cleaved from CD73.mCAR-pNK cells) of the same molecule?
Its value is “significantly reduced ability to produce adenosine”.

B3: CCL5: Recombinant human RANTES (CCL5) (protein, UniProt P13501 24-91, looked up)
C-C motif chemokine 5: SPYSSDTTPCCFAYIARPLPRAHIKEYFYTSGKCSNPAVVFVTRKNRQVCANPEKKWVREYINSLEMS
B3 was tested. Which “migration of activated pNK cells along ligand gradient across in vitro BBB” value (pNK cells [2]) did it give?
The value was “significantly increased”.
